Assay results as given in patent US20080025938A1, “Method and composition for permanently shaping hair” (priority 2006, published 2008).

Tests used:
[1] = versus N-methylmercaptoacetamide and N-hydroxyethylmercaptoacetamide; cited from earlier work
hair = assay: Permanent waving of hair on curlers with the composition, then oxidative fixing; assessed by hairdresser and customer; format: in vivo, human; conditions: used alone as the hair keratine reducing agent
Description: The method of permanent shaping of human hair according to the invention is defined as: A method for permanent shaping of hair, said method comprising the steps of: • (a) putting the hair in a desired shape; • (b) before and/or after the hair is put in the desired shape, applying an amount of a permanent shaping composition to the hair, and allowing the permanent shaping composition to act on the hair for a predetermined acting time sufficient for the permanent shaping of the hair; • (c) subsequently rinsing the hair with water or applying an intermediate treatment agent; • (d) performing an oxidative post-treatment of the hair; • (e) after the oxidative post-treatment, rinsing the hair with water and drying the hair, wherein said permanent shaping composition is a composition according to any-one of claims 1 to 13. Details of the method are given as follows. First the hair (which is washed and towel-dried) is separated into multiple sections and then these sections are rolled onto curlers. […] After the rolling on curlers is finished, the curlers are thoroughly wetted down using the required quantity of the permanent shaping composition, preferably about 60 g to about 120 g. […] The fixing composition is used in a quantity of about 50 g to about 200 g, preferably about 80 g to about 100 g, depending on hair thickness and length. […]

In the case of `O=C(CS)NCCCO` [N-(3′-hydroxypropyl)-2-mercapto-acetamide], the sensitization rates [1] is listed as “substantially lower sensitization rates” and the “fastness of the permanent shaped hair to humidity, particularly sweat” value (hair) is listed as “not sufficient”.
